Data taken from patent US20100029654A1, “CARDIOVASCULAR COMPOSITIONS AND USE OF THE SAME FOR THE TREATMENT OF ALZHEIMER'S DISEASE” (MOUNT SINAI SCHOOL OF MEDICINE, priority 2006, published 2010).
pEC50: −log10 of the molar value. “Also recorded” adds a separate entry of the source. Like-named read-outs stand apart in the source and are kept apart here.

How the values were obtained:
Aβ1-42 = Aβ1-42 content in conditioned medium of primary cortico-hippocampal neuron cultures from Tg2576 mice (ELISA; primary and secondary dose-response screening); type: cell-based, mouse; conditions: for Ab1-42 (% of ctl): drug 100 μM
Method in brief: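 This screen tested cardiovascular drugs for Aβ-lowering in Tg2576 embryonic cortico-hippocampal neuron cultures plated at 1.0×10^5 cells per well in poly-D-lysine-coated 96-well plates with Neurobasal/B27 medium. Drugs at 100 μM were added directly to the medium in duplicate, with 1% DMSO alone as the control. Conditioned medium was then collected, and its Aβ1-42 level was quantified with BioSource ELISA kits.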

Tg2576 mice [1] = assay: tolerability: body weight, fluid consumption, glucose tolerance
Tg2576 mice [2] = assay: blood pressure (systolic, diastolic, MAP) by tail-cuff; type: in vivo, mouse
α-secretase = tested on: α-secretase; design: dose or concentration left out as unconfirmed; conditions: primary Tg2576 neuron cultures, 16 hours
Tg2576 mice [3] = assay: Morris water maze test of spatial memory; type: in vivo, mouse
From the text: In the MWM assay, experimental animals are placed into a circular water tank and provided with a submerged “escape platform” at a specific location. Appropriate visual cues are located on a wall surrounding the water tank. Through repeated “learning trials”, normal animals typically learn to use the visual cues for spatial navigation and eventually require less time to swim to the platform as reflected by reducing escape latency.
Behavioral assessment of cognitive function by the Morris water maze test. […] At ˜11 months of age, mice were put into the water maze from 4 different quadrants; spatial memory was assessed by recording the average latency time for the animal to escape to the hidden platform. The behavior analysis was consistently conducted during the last 4 hours of the day portion of the light cycle in an environment with minimal stimuli (e.g., noise, movement, or changes in light or temperature).

γ-secretase = tested on: γ-secretase; design: dose or concentration left out as unconfirmed; conditions: primary Tg2576 neuron cultures, 16 hours
Aβ1-40 = Aβ1-40 content in conditioned medium of primary cortico-hippocampal neuron cultures from Tg2576 mice (ELISA; primary and secondary dose-response screening); type: cell-based, mouse; conditions: for Ab1-40 (% of ctl): drug 100 μM; for pEC50: read-out: EC50 (molar) Aβ1-40
Method in brief: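 Primary cortico-hippocampal neurons from embryonic Tg2576 mice were plated at 1.0×10^5 cells per well on poly-D-lysine-coated 96-well plates in Neurobasal with 2% B27, 0.5 mM L-glutamine and 1% penicillin-streptomycin. Cultures received drug in 1% DMSO, and Aβ1-40 in the conditioned medium was measured by BioSource ELISA 24 hours after treatment, relative to vehicle controls.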

Aβ1-42 peptide = target: T1, Aβ1-42 peptide (Homo sapiens, UniProt P05067); assay: Aβ-peptide oligomerization assay in vitro (Western blot, A11 dot blot); type: biochemical
T1 construct: Lyophilized Aβ1-42 peptide was dissolved
Procedure: Aβ-peptideoligomerization assay in vitro: Lyophilized Aβ1-42 peptide was dissolved in 1,1,1,3,3,3,-hexafluoro-2-propanol (HFIP, from Sigma), incubated at room temperature for 60 min, aliquoted, vacuum dried and stored at −80° C. Aβ peptide was dissolved in DMSO and diluted into ddH2O to a final concentration of 100 μg/ml. The peptide was then mixed with equal volume of drugs and incubated at 37° C. for 1 day (Klein, W. L. 2002. Neurochemistry International 41:345-352).
Following incubation, samples were centrifuged at 14,000×g for 10 min at 4° C. Supernatants were mixed with 2× SDS sample buffer and separated on a 10-20% Tris-Tricine gradient SDS gel (Invitrogen). The separated peptides were subjected to Western blot using 6E10 antibody (1:1000, Signet, St. Louis). Immunoreactive signals were visualized by using enhanced chemiluminescence detection (Amersham), and quantified densitometrically (Quantity One, Bio-Rad).
Immunoreactive signals were detected and quantified as described above.

[4] = tested on: primary cortico-hippocampal neuron cultures; assay: lactate dehydrogenase (LDH) activity assay in parallel neuron cultures
Procedure: For in vitro treatments drugs available from “The Spectrum Collection” in stocks of 10 mM in DMSO were applied directly to cultures to the desired concentrations (final 1% DMSO); control primary neuron cultures from Tg2576 embryos were treated with vehicle resulting in a final 1% DMSO.
Cell viability was assessed using a commercial available LDH assay kit according to the manufacture's instruction (Promega).

[5] = tested on: primary cortico-hippocampal neuron cultures; assay: MTT in primary screening
[6] = Primary Screening, table sorted by Aβ1-40
[7] = primary screening, Tg2576 neuron cultures, table sorted by Aβ1-42
[8] = valsartan 10 or 40 mg/kg/day in drinking water, chronic
[9] = primary screening, table sorted by Aβ1-42

T1 sequence (P05067 672-713 limits assumed): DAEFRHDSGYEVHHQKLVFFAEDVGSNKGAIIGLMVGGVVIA

For “N-(1-oxopentyl)-N-[[2-(1H-tetrazol-5-yl) [1,1-biphenyl]-4-yl]methyl]-L-valine [Valsartan]”, the “Ab1-42 (% of ctl)” value (Aβ1-42; [6]) was 42.0 % of ctl, the “reducing Aβ1-42” value (Aβ1-42; primary screening, <85% of ctl) was “useful in reducing Aβ1-42” and the “Ab1-42 (% of ctl)” value (Aβ1-42; [7]) was 42.0 % of ctl. For the same substance, the body weight (Tg2576 mice [1]; [8]) was “no detectable changes in body weight; also recorded: did not significantly influence animal body weight”, the fluid intake (Tg2576 mice [1]; [8]) was “did not significantly influence the amount of fluid intake” and the glucose-tolerance responses (Tg2576 mice [1]; valsartan 10 or 40 mg/kg/day, ~5 months) was “did not significantly influence”. For the same substance, the “systolic, diastolic, MAP blood pressure” value (Tg2576 mice [2]; WT mice, valsartan) was “no detectable changes in systolic, diastolic, or MAP”, the “systolic, diastolic, MAP blood pressure” value (Tg2576 mice [2]; normotensive Tg2576 mice, valsartan 10 or 40 mg/kg/day, chronic) was “did not significantly influence systolic, diastolic, or MAP; also recorded: did not influence systolic, diastolic, and MAP blood pressure; also recorded: failed to produce a statistically significant change” and the α-secretase activity (α-secretase) was “no detectable change”. For the same substance, the “escape latency in Morris water maze” value (Tg2576 mice [3]; Tg2576 mice, valsartan 10 and 40 mg/kg/day vs untreated) was “significant improvement in escape latency; also recorded: significantly reduced escape latency; also recorded: performed significantly better than untreated mice”, the “spatial memory performance in Morris water maze” value (Tg2576 mice [3]; WT mice, valsartan 10 or 40 mg/kg/day) was “did not significantly influence spatial memory performance; also recorded: failed to influence spatial reference memory performance” and the γ-secretase activity (γ-secretase) was “no detectable change”. The “Ab1-40 (% of ctl)” value (Aβ1-40; [6]) was 51.6 % of ctl, the EC50 (Aβ1-40; Table IV, dose-response 0.01-100 μM, read-out: EC50 (M): Ab-lowering activity Abeta1-40) was 1.44e-05 M and the pEC50 (Aβ1-40; conditioned medium of primary cortico-hippocampal neuron cultures from Tg2576 embryos, 24 hours after treatment, relative to vehicle (1% DMSO) control) was 4.84. For the same substance, the “reduced Aβ1-40” value (Aβ1-40; primary screening, <85% of ctl) was “reduced Aβ1-40”, the “Ab1-40 (% of ctl)” value (Aβ1-40; [7]) was 51.6 % of ctl and the pEC50 (Aβ1-40; secondary dose-response screening 0.01-100 μM, 24 hours) was 4.84. For the same substance, the “in vitro anti-Aβ oligomerization activity compared with other Aβ-lowering antihypertensives” value (Aβ1-42 peptide) was “qualitatively stronger in vitro anti-Aβ oligomerization activity”, the “Aβ1-42 oligomerization (A11 dot-blot)” value (Aβ1-42 peptide; 24 hours after incubation, vs vehicle) was “prevented Aβ1-42 oligomerization” and the “prevention of oligomerization of Aβ1-42 (and Aβ1-40) into >40 kDa HMW species (Western Blot)” value (Aβ1-42 peptide; valsartan 10 μM, vs vehicle) was > 5 fold. The “LDH (% of ctl)” value [4, 6] was 94.1 % of ctl, the “LDH (at 5F-5 M)” value ([4]; Table IV) was “no change” and the “LDH at E-5M % of change” value ([4]; drug at E-5M) was 13.0%. For the same substance, the “LDH (% of ctl)” value [4, 9] was 94.1 % of ctl, the “MTT (% of ctl)” value [5, 6] was 67.4 % of ctl and the “MTT (% of ctl)” value [5, 9] was 67.4 % of ctl.
